In PMC11623308 (2023):

System: 5'-biotin NRAS-G4 (RNA, G4) UGUGGGAGGGGCGGGUCUGGG
Experiment: SPR
Settings: K+ 100 mM; 10 mM Tris pH 6.9, 0.005% Tween 20, 5% DMSO; Langmuir 1:1 fit

KD: 79 ± 1.2 nM
Compound: CN(C)c1ccc(Nc2c3ccc(NC(=O)CCN4CCCC4)cc3nc3cc(NC(=O)CCN4CCCC4)ccc23)cc1
